# Experiments:
# Format in all cases: cell-based
# Streptococcus pyogenes = assay: MIC by agar dilution, SPYO 152; conditions: strain SPYO 152
# From the text: (§1) The in vitro activity of compounds of this invention can be assessed by standard testing procedures such as the determination of minimum inhibitory concentration (MIC) by agar dilution as described in “Approved Standard.
# Enterococcus faecalis = assay: MIC by agar dilution, EFAE 9217; conditions: strain EFAE 9217
# From the text: as §1
# Moraxella catarrhalis = assay: MIC by agar dilution, MCAT 30607; conditions: strain MCAT 30607
# From the text: as §1
# Streptococcus pneumoniae = assay: MIC by agar dilution, SPNE 9912; conditions: strain SPNE 9912
# From the text: as §1
# H. influenzae = assay: MIC by agar dilution, HINF 30063; conditions: strain HINF 30063
# From the text: as §1
# Staphylococcus aureus = assay: MIC by agar dilution, SAUR 9213; conditions: strain SAUR 9213
# From the text: as §1
# Enterococcus faecium = assay: MIC by agar dilution, EFAE 12712; conditions: strain EFAE 12712
# From the text: as §1
# [1] = test system: Staphylococcus epidermidis; assay: MIC by agar dilution, SEPI 30593; conditions: strain SEPI 30593
# From the text: as §1
smiles,measurement,setting,value
"CC(=O)NC[C@H]1CN(c2ccc(C3CCS(=N)(=O)CC3)c(F)c2)C(=O)O1 (single isomer, unassigned) [Example 4]",Antibacterial Activity Minimum Inhibitory Concentration SPYO 152,Streptococcus pyogenes,1 µg/mL
same,Antibacterial Activity Minimum Inhibitory Concentration EFAE 9217,Enterococcus faecalis,2 µg/mL
same,Antibacterial Activity Minimum Inhibitory Concentration MCAT 30607,Moraxella catarrhalis,4 µg/mL
same,Antibacterial Activity Minimum Inhibitory Concentration SPNE 9912,Streptococcus pneumoniae,1 µg/mL
same,Antibacterial Activity Minimum Inhibitory Concentration HINF 30063,H. influenzae,8 µg/mL
same,Antibacterial Activity Minimum Inhibitory Concentration SAUR 9213,Staphylococcus aureus,16 µg/mL
same,Antibacterial Activity Minimum Inhibitory Concentration EFAE 12712,Enterococcus faecium,4 µg/mL
same,Antibacterial Activity Minimum Inhibitory Concentration SEPI 30593,[1],2 µg/mL
"CC(=O)NC[C@H]1CN(c2ccc(C3CCS(=N)(=O)CC3)c(F)c2)C(=O)O1 (single isomer, unassigned) [Example 8]",Antibacterial Activity Minimum Inhibitory Concentration SPYO 152,Streptococcus pyogenes,1 µg/mL
same,Antibacterial Activity Minimum Inhibitory Concentration EFAE 9217,Enterococcus faecalis,2 µg/mL
same,Antibacterial Activity Minimum Inhibitory Concentration MCAT 30607,Moraxella catarrhalis,2 µg/mL
same,Antibacterial Activity Minimum Inhibitory Concentration SPNE 9912,Streptococcus pneumoniae,0.5 µg/mL
same,Antibacterial Activity Minimum Inhibitory Concentration HINF 30063,H. influenzae,8 µg/mL
same,Antibacterial Activity Minimum Inhibitory Concentration SAUR 9213,Staphylococcus aureus,8 µg/mL
same,Antibacterial Activity Minimum Inhibitory Concentration EFAE 12712,Enterococcus faecium,2 µg/mL
same,Antibacterial Activity Minimum Inhibitory Concentration SEPI 30593,[1],1 µg/mL
"CC(=S)NC[C@H]1CN(c2ccc(C3CCS(=N)(=O)CC3)c(F)c2)C(=O)O1 (single isomer, unassigned) [Example 9]",Antibacterial Activity Minimum Inhibitory Concentration SPYO 152,Streptococcus pyogenes,0.25 µg/mL
same,Antibacterial Activity Minimum Inhibitory Concentration EFAE 9217,Enterococcus faecalis,0.5 µg/mL
same,Antibacterial Activity Minimum Inhibitory Concentration MCAT 30607,Moraxella catarrhalis,2 µg/mL
same,Antibacterial Activity Minimum Inhibitory Concentration SPNE 9912,Streptococcus pneumoniae,0.25 µg/mL
same,Antibacterial Activity Minimum Inhibitory Concentration HINF 30063,H. influenzae,2 µg/mL
same,Antibacterial Activity Minimum Inhibitory Concentration SAUR 9213,Staphylococcus aureus,0.5 µg/mL
same,Antibacterial Activity Minimum Inhibitory Concentration EFAE 12712,Enterococcus faecium,0.5 µg/mL
same,Antibacterial Activity Minimum Inhibitory Concentration SEPI 30593,[1],0.125 µg/mL
"CCC(=S)NC[C@H]1CN(c2ccc(C3CCS(=N)(=O)CC3)c(F)c2)C(=O)O1 (single isomer, unassigned) [Example 10]",Antibacterial Activity Minimum Inhibitory Concentration SPYO 152,Streptococcus pyogenes,0.25 µg/mL
same,Antibacterial Activity Minimum Inhibitory Concentration EFAE 9217,Enterococcus faecalis,0.5 µg/mL
same,Antibacterial Activity Minimum Inhibitory Concentration MCAT 30607,Moraxella catarrhalis,2 µg/mL
same,Antibacterial Activity Minimum Inhibitory Concentration SPNE 9912,Streptococcus pneumoniae,0.25 µg/mL
same,Antibacterial Activity Minimum Inhibitory Concentration HINF 30063,H. influenzae,2 µg/mL
same,Antibacterial Activity Minimum Inhibitory Concentration SAUR 9213,Staphylococcus aureus,1 µg/mL
same,Antibacterial Activity Minimum Inhibitory Concentration EFAE 12712,Enterococcus faecium,0.5 µg/mL
same,Antibacterial Activity Minimum Inhibitory Concentration SEPI 30593,[1],0.25 µg/mL
"N=S1(=O)CCC(c2ccc(N3C[C@H](CNC(=S)C4CC4)OC3=O)cc2F)CC1 (single isomer, unassigned) [Example 11]",Antibacterial Activity Minimum Inhibitory Concentration SPYO 152,Streptococcus pyogenes,0.25 µg/mL
same,Antibacterial Activity Minimum Inhibitory Concentration EFAE 9217,Enterococcus faecalis,0.5 µg/mL
same,Antibacterial Activity Minimum Inhibitory Concentration MCAT 30607,Moraxella catarrhalis,1 µg/mL
same,Antibacterial Activity Minimum Inhibitory Concentration SPNE 9912,Streptococcus pneumoniae,0.25 µg/mL
same,Antibacterial Activity Minimum Inhibitory Concentration HINF 30063,H. influenzae,4 µg/mL
same,Antibacterial Activity Minimum Inhibitory Concentration SAUR 9213,Staphylococcus aureus,1 µg/mL
same,Antibacterial Activity Minimum Inhibitory Concentration EFAE 12712,Enterococcus faecium,0.5 µg/mL
same,Antibacterial Activity Minimum Inhibitory Concentration SEPI 30593,[1],0.5 µg/mL
"CC(=O)N=S1(=O)CCC(c2ccc(N3C[C@H](CNC(C)=O)OC3=O)cc2F)CC1 (single isomer, unassigned) [Example 12]",Antibacterial Activity Minimum Inhibitory Concentration SPYO 152,Streptococcus pyogenes,1 µg/mL
same,Antibacterial Activity Minimum Inhibitory Concentration EFAE 9217,Enterococcus faecalis,2 µg/mL
same,Antibacterial Activity Minimum Inhibitory Concentration MCAT 30607,Moraxella catarrhalis,8 µg/mL
same,Antibacterial Activity Minimum Inhibitory Concentration SPNE 9912,Streptococcus pneumoniae,0.5 µg/mL
same,Antibacterial Activity Minimum Inhibitory Concentration HINF 30063,H. influenzae,16 µg/mL
same,Antibacterial Activity Minimum Inhibitory Concentration SAUR 9213,Staphylococcus aureus,8 µg/mL
same,Antibacterial Activity Minimum Inhibitory Concentration SEPI 30593,[1],1 µg/mL
